Source: the SangsterLogP compilation

Test: method code SF-AS, from DOI: 10.1248/cpb.30.4175, PMID: 7165882

SMILES | logP
Cc1ccc(COC(=O)N(C)C)cc1 | 2.63
CN(C)C(=O)OCc1ccc(OCc2ccccc2)cc1 | 3.27
CN(C)C(=O)OCc1ccc(Br)cc1 | 3.01
CN(C)C(=O)OCc1ccc(Cl)cc1 | 2.93
CN(C)C(=O)OCc1ccc(OC(=O)N(C)C)cc1 | 1.59
CN(C)C(=O)OCc1cccc(Cl)c1 | 2.82
CN(C)C(=O)OCc1ccccc1 | 2.16
COc1ccc(COC(=O)N(C)C)cc1 | 2.2
COc1cccc(COC(=O)N(C)C)c1 | 2.09
CN(C)C(=O)OCc1ccc(C#N)cc1 | 1.67
CN(C)C(=O)OCc1ccc(I)cc1 | 3.32
CN(C)C(=O)OCc1ccc(F)cc1 | 2.3
CN(C)C(=O)OCc1ccc([N+](=O)[O-])cc1 | 1.95
